Assay [1] deals with BALB/c mice with Con A-induced hepatitis. Briefly: Con A-induced acute (autoimmune) hepatitis animal experiment. Type of assay: in vivo. The text has this: Concanavalin A (Con A) and dexamethasone (Dex) were purchased from Sigma-Aldrich (USA). ProcartaPlex™ Immunoassays kit was purchased from Corning Inc. (USA). GOP and GPT Fuji Dri-Chem slides were purchased from Winning Medical Inc. (Taiwan).
Male BALB/c mice (7-9 weeks old) were purchased from BioLASCO Taiwan Co., Ltd or National Laboratory Animal Center (NLAC, Taiwan). Animals were housed five per cage with food and water provided ad libitum throughout the experiments. Room temperature was maintained at 23±2° C. with an alternating 12 h light-dark cycle. Animals were acclimatized for one week to minimize the effect of stress before the experiments. All experimental protocols involving animals and their care were approved by the Institutional Animal Care and Use Committee (IACUC) in ITRI (ITRI-IACUC-2018-041 and ITRI-IACUC-2018-050; accredited by AAALAC) and were carried out according to the regulations of the Council of Agriculture, Taiwan.
Con A was dissolved in pyrogen-free saline at a concentration of 3 mg/ml and intravenously injected at a dose of 15 mg/kg or 20 mg/kg of body weight to induce hepatitis. AR100DS1 and Dex were orally administered 30 min before and then 4 h and 8 h after Con A treatment. Blood and liver tissues were collected 24 h after Con A treatment. Serum were stored at −80° C. until analysis.
To assess the level of hepatocellular injury after Con A treatment, serum GPT and GOT levels were measured by Fuji Dri-Chem slides (Fuji, Japan).
The serum of the same group were pooled for cytokine assay. Cytokine levels were measured by ProcartaPlex™ Immunoassays kit according to manufacturer's instructions.
Liver tissues were fixed in 10% phosphate-buffered formaldehyde, embedded in paraffin, and stained with hematoxylin and eosin (H&E) in order to confirm tissue lesions. Tissue lesions were examined microscopically by a veterinary pathologist at BioLASCO Taiwan Co., Ltd. The criteria of severity grading system for all microscopic lesions were graded from 0 to 4 as follows: 0=none; 1=individual cell necrosis; 2=≤30% lobular necrosis; 3=≤60% lobular necrosis; 4=22 60% lobular necrosis.
Data are presented as mean±SEM. In this study, Student's t-test was used to analyze the differences between drug-and vehicle-treated groups. The difference is regarded statistically significant when p value is less than 0.05.
Autoimmune hepatitis (AIH) is a complex disease which is characterized by hepatocellular inflammation, necrosis, and a tendency to cirrhosis. The plant lectin concanavalin A (Con A)-induced acute hepatitis in BALB/c mice is a common animal model for AIH and we performed this model to evaluate the anti-hepatitis effects of AR001DS1. Dexamethasone (Dex), one of the steroids-based standard treatments of AIH, was used as a positive control.

In assay [2] the test system is IL-1β expression in PMA-activated THP-1 cells. Briefly: PMA-induced IL-1β expression in THP-1 cells (Q-PCR, immunoblotting). Type of assay: cell-based. The settings on record: for IL-1β mRNA expression, treatment after activation: PMA for 24 h, followed by treatment for another 24 h; for IL-1β mRNA and protein expression, pretreatment: pretreated 0.5 h, followed by PMA induction for 48 h. The method, then: Q-PCR analysis (left) and immunoblotting (right) for IL-1β mRNA and protein expression in THP-1 cells pretreated with AR001DS1 or AR001DS2 for 0.5 h, followed by PMA induction for 48 h.
Q-PCR analysis for IL-1β mRNA expression in THP-1 cells stimulated with PMA for 24 h, followed by treatment with or without AR001DS1 or AR001DS2 for another 24 h.
Because AR100 was composed of AR001DS1 and AR001DS2, THP-1 cells were independently pre-treated with the two components, followed by PMA activation.

Assay [3] relates to PMA-induced cytokines in THP-1 cells. In words: Bio-plex human 27-plex cytokine assay in PMA treated THP-1 cells. Particulars: 10 μg/ml for 0.5 hr, then PMA 10 ng/ml for 24 hr. Type of assay: cell-based. The source says: In addition to IL-1β, several cytokines participated in inflammatory responses. To identify cytokine networks affected by AR001DS1, we performed Bio-plex analysis to monitor the effect of AR001DS1 treatment on the expression of human 27 cytokines in PMA treated THP-1 cells.

For a further assay, the system named is RBL-2H3 cells. In words: β-Hexosaminidase secretion assay (mast cell degranulation). Format: cell-based. The settings on record: 12.5, 25, 50 and 100 μg/ml, anti-DNP IgE-sensitized, DNP-BSA stimulated. The method, then:
RBL-2H3 cells were plated in a 24-well plate and then sensitized with anti-dinitrophenyl (DNP)-IgE overnight at 37° C. in a 5% CO2 atmosphere. After washing, the cells were treated with AR001DS1 (12.5, 25, 50 and 100 μg/ml) at 37° C. for 30 min, and then stimulated with DNP-bovine serum albumin (BSA) at 37° C. for 30 min to induce degranulation. The supernatant was transferred to a 96-well microplate and incubated for 2 h with equal volume of 5 mM 4-nitrophenyl N-acetyl-b-glucosaminide in 0.1M citrate buffer (pH 4.5). The reaction was terminated by adding […] of stop buffer (0.05 M sodium carbonate, pH 10), and OD at 405 nm was determined using an ELISA plate reader.

The subject of assay [4] is TNF-α secretion in DCs from C57BL/6 mice. Briefly: ELISA assay for TNF-α secretion by LPS-stimulated dendritic cells. Type of assay: cell-based. Particulars: AR001DS1 12.5, 25, 50 and 100 μg/ml. The method, then: DCs were isolated from C57BL/6 mice and incubated at 37° C. for 7 days. Then DCs were plated in a 24-well plate and cultured at 37° C. overnight in a 5% CO2 atmosphere. DCs were treated with AR001DS1 (12.5, 25, 50 and 100 μg/ml) for 1 h, and then stimulated with lipopolysaccharide (LPS) for 4 h. The supernatants were collected and TNF-α secretion in culture supernatants was quantitated using an ELISA assay.

Assay [5] relates to animal model of gout arthritis. Briefly: Animal model of gout arthritis. Particulars: in vivo.

“Also recorded” adds a separate entry of the source.

Turning to `C=C1C(=O)OC2/C=C(\C)CC3C=C(CC/C=C(\C)CCC12)C(=O)O3` (stereo not drawn) [AR001DS1, ovatodiolide], the “liver necrosis histopathological score (0-4)” value in assay [1] (50 mg/kg oral, 15 mg/kg Con A, vehicle 1.4±0.2) was 0.2±0.2. The “serum GPT” value in assay [1] (50 mg/kg oral, 15 mg/kg Con A, vehicle 368±107, p<0.05) turned out to be 109±25 U/L. In assay [1] (50 mg/kg oral, 15 mg/kg Con A, vehicle 410±56), the “serum GOT” value stood at 261±45 U/L. Moreover, in assay [2], the “IL-1β mRNA expression, treatment after activation” value (“IL-1β mRNA expression, treatment” below) is given as “inhibits PMA-induced IL-1β expression”; the “IL-1β mRNA and protein expression, pretreatment” value is given as “blocked the expression of IL-1β; also recorded: inhibits PMA-induced IL-1β expression”. Besides, in assay [2] (listed as AR100DS1), the “IL-1β mRNA expression, treatment” value is “attenuated the expression of IL-1β”. In addition, in assay [3], the “IL-1β expression (Bio-plex)” value is recorded as “attenuated its expression”; the “MIP-α and -β expression (Bio-plex)” value is “blocked their expressions”; the “induction of IL-8, TNF-α and RANTES (Bio-plex)” value is “inhibited”. Also, the “secretion of β-hexosaminidase (degranulation)” value in the assay on RBL-2H3 cells is reported as “significantly inhibited; also recorded: suppress mast cell degranulation in a dose-dependent manner”. Also, the “secretion of TNF-α” value in assay [4] was “better inhibitory effect on the secretion of TNF-α in LPS-stimulated DCs than quercetin; also recorded: suppress TNF-α secretion by dendritic cells (DCs) in a dose-dependent manner”. In assay [5], the “effect on gout arthritis” value is on record as “therapeutic effects”.

As to `C=CC(OC(C)=O)c1ccc(OC(C)=O)cc1` (stereo not drawn) [AR001DS2, 1′-acetoxychavicol acetate], in assay [2], the “IL-1β mRNA expression, treatment” value is “did not suppressed”; the “IL-1β mRNA and protein expression, pretreatment” value is “blocked the expression of IL-1β; also recorded: inhibits PMA-induced IL-1β expression”.

In the case of `C[C@@H]1C[C@H]2[C@@H]3CCC4=CC(=O)C=C[C@]4(C)[C@@]3(F)[C@@H](O)C[C@]2(C)[C@@]1(O)C(=O)CO` [Dex, dexamethasone], the “serum GPT” value came out at 898±515 U/L in assay [1] (15 mg/kg Con A, oral, Con A alone 1437±398) and 1940±403 U/L in assay [1] (20 mg/kg Con A, oral). Also, the “serum GOT” value in assay [1] (15 mg/kg Con A, oral, Con A alone 1450±433) is 809±339 U/L; in assay [1] (20 mg/kg Con A, oral, Con A alone 2249±549), 1261±282 U/L. Further, the “liver necrosis histopathological score (0-4)” value in assay [1] (15 mg/kg Con A, Con A alone 2.2±0.2) was 1.6±0.6; in assay [1] (20 mg/kg Con A), 2.6±0.2.

In the case of `O=c1c(O)c(-c2ccc(O)c(O)c2)oc2cc(O)cc(O)c12` [quercetin, reference compound], the “secretion of TNF-α” value in assay [4] is recorded as “effectively reduced the secretion of TNF-α”.

These data come from patent US20200009110A1, “METHOD FOR TREATING AN ALLERGIC DISEASE” (Arjil Biotech Holding Company Limited, priority 2018, published 2020).
